From US20240293579A1, “Composition Comprising Trim31 and Rhbdf2 for Treatment of NAFLD/NASH” (CHONGQING MEIPULAN TECHNOLOGY CO., LTD, priority 2021, published 2024)
Where a name gives a salt, the structure may show the parent alone. Read-outs that look alike come from different tables or passages of the source.

Assays:
[1] = system: Mice with a NASH phenotype (THTG-HFHF); test: Carminic acid in mice with a NASH phenotype (THTG-HFHF), liver mRNA and protein levels; type: in vivo; conditions: 16 weeks
Description: (§1) To further investigate the protective effects of Trim31 on liver steatosis, a nonalcoholic steatohepatitis (NASH) mice model was established in accordance with previous reports (Xu Min-Xuan,Tan Jun, et al., Journal of Hazardous Materials, 2020, 400: 123158). The THTG mice were then fed with HFHF diet (14% protein, 42% fat, 44% carbohydrates, 0.2% cholesterol and with a total of 42 g/L of carbohydreate mixed in drinking water at a ratio of 55% fructose and 45% sucrose by weight) for 16 weeks to produce phenotype of NASH. Also, the NTG mice used in this design as controls and were synchronously allowed to ad libitum access to this diet for 16 weeks.
(§2) Based on the effective protective effect of Trim31 in NAFLD, we accordingly investigated the therapeutic feasibility and effect of targeting the Trim31-Rhbdf2-MAP3K7 pathway in the development and progression of NASH. The THTG mice were then fed with an HFHF diet containing 14% protein, 42% fat, 44% carbohydrates, and 0.2% cholesterol and with a total of 42 g/L of carbohydrate mixed in drinking water at a ratio of 55% fructose and 45% sucrose by weight, for 16 weeks to generate mice with a NASH phenotype (THTG-HFHF).
Mice with a NASH phenotype (THTG-HFHF) were constructed according to the protocol described in Example 10. The control group (Ctrl), NASH-THTG group (Fru), low dose group (CAL, 0.5% CA+Fru), high dose group (CAH, 1% CA+Fru) were set up. The drug group was treated with 0.5% and 1% carminic acid (CA) by gavage.

TRIM31 mRNA = TRIM31 mRNA expression by RT-qPCR in PA/OA-induced L02 cells; type: cell-based, human; conditions: for fold induction at 100 µM: Homo sapiens
Experimental: Palmitic acid/oleic acid (PA/OA) was used to induce the decrease of TRIM31 mRNA expression in human hepatocyte L02 cells. The cells were divided into control group and drug group. The drug group was treated with a concentration of 100 μmol/L compound, and the expression level of TRIM31 mRNA was detected by RT-qPCR. The expression level of TRIM31 mRNA in the drug group divided by that in the control group (Qdrug/Qctrl) was used to evaluate the ability of the compounds to promote TRIM31 expression. […]

[2] = system: Mice with a NASH phenotype (THTG-HFHF); test: Fisetin in mice with a NASH phenotype (THTG-HFHF), liver mRNA levels; type: in vivo; conditions: 16 weeks
Description: as §1, §2
Mice with a NASH phenotype (THTG-HFHF) were constructed according to the protocol described in Example 10. A control group (Ctrl), a NASH group (THTG), and three drug groups (FIS) were set up. The three drug groups (FIS) were treated with 20 mg/kg, 40 mg/kg and 80 mg/kg fisetin (FIS) by gavage.

[3] = system: Mice with a NASH phenotype (THTG-HFHF); test: Betacyanin in mice with a NASH phenotype (THTG-HFHF), liver protein expression; type: in vivo; conditions: 0.2 g/kg mixed with feed, 16 weeks
Description: as §1, §2
Mice with a NASH phenotype (THTG-HFHF) were constructed according to the protocol described in Example 10. A control group (Ctrl), a NASH group (THTG), and a drug group (BCN) were set up. The drug group was fed with 0.2 g/kg betacyanin (BCN) mixed with feed.

[4] = molecular target: T1, human RHBDF2, full-length, HA-tagged (RHBDF2-HA), Q6PJF5
T1 chain: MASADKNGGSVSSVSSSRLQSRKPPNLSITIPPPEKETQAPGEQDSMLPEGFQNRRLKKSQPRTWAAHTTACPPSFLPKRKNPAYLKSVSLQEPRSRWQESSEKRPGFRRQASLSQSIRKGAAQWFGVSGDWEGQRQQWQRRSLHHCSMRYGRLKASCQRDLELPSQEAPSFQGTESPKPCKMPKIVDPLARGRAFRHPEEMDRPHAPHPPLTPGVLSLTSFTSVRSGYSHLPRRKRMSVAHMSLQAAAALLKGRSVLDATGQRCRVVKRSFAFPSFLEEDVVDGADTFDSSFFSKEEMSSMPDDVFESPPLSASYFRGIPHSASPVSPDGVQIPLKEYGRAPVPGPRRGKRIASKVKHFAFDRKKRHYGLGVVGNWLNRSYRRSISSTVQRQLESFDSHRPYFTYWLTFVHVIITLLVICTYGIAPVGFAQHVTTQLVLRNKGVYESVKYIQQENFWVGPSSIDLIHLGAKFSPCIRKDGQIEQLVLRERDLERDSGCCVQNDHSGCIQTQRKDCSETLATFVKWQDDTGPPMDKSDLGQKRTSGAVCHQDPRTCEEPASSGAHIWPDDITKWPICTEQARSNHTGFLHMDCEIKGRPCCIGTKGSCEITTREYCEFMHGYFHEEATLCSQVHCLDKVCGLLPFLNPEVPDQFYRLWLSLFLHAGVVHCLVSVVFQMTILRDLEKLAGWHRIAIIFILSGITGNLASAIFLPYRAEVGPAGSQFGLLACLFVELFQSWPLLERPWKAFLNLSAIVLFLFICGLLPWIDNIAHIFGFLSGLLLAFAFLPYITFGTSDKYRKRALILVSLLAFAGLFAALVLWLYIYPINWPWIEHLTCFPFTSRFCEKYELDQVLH

[5] = 100 μmol/L compound, PA/OA-induced L02 cells, RT-qPCR, read-out: Qdrug/Qctrl (TRIM31 mRNA expression level, drug group divided by control group)
[6] = L02, read-out: Qdrug/Qctrl (TRIM31 mRNA expression level, drug group divided by control group)
[7] = 100 μmol/L compound, PA/OA-induced L02 cells, RT-qPCR

Molecule: Cc1c(C(=O)O)c(O)cc2c1C(=O)c1c(O)c([C@@H]3O[C@H](CO)[C@@H](O)[C@H](O)[C@H]3O)c(O)c(O)c1C2=O [Carminic acid]
- Collagen I mRNA level in liver ([1]; 0.5% and 1% CA by gavage): significantly decreased
- Keap1 protein in liver ([1]; 0.5% and 1% CA by gavage): significantly decreased
- MMP-9 mRNA level in liver ([1]; 0.5% and 1% CA by gavage): significantly decreased
- TGF-β1 mRNA level in liver ([1]; 0.5% and 1% CA by gavage): significantly decreased
- TRIM31 protein expression in liver ([1]; 0.5% and 1% CA by gavage): significantly increased
- α-SMA mRNA level in liver ([1]; 0.5% and 1% CA by gavage): significantly decreased
- liver fibrosis and inflammation ([1]; gavage): effectively alleviated
- these indexes (fibrosis genes, Keap1, TRIM31) versus control group ([1]; high dose group (CAH, 1% CA)): close to the normal level of the control group
- fold induction at 100 µM (TRIM31 mRNA; [5]): 2.78

Molecule: O=c1c(O)c(-c2ccc(O)c(O)c2)oc2cc(O)ccc12 [Fisetin]
- fold induction at 100 µM (TRIM31 mRNA; [5]): 3.27
- Collagen I mRNA level in liver ([2]; 20, 40 and 80 mg/kg by gavage): significantly decreased
- Fibronectin mRNA level in liver ([2]; 20, 40 and 80 mg/kg by gavage): significantly decreased
- TGF-β1 mRNA level in liver ([2]; 20, 40 and 80 mg/kg by gavage): significantly decreased
- TRIM31 mRNA level in liver ([2]; 20, 40 and 80 mg/kg by gavage): significantly increased
- α-SMA mRNA level in liver ([2]; 20, 40 and 80 mg/kg by gavage): significantly decreased
- liver fibrosis and inflammation ([2]; gavage): significantly alleviated
- these indexes (fibrosis gene and TRIM31 mRNA levels) versus control group ([2]; high dose group (80 mg/kg)): close to the normal level of the control group

Molecule: CC1(C)[C@@H](O[C@H]2O[C@H](C(=O)O)[C@@H](O)[C@H](O)[C@H]2O[C@@H]2O[C@H](C(=O)O)[C@@H](O)[C@H](O)[C@H]2O)CC[C@]2(C)[C@H]3C(=O)C=C4[C@@H]5C[C@@](C)(C(=O)O)CC[C@]5(C)CC[C@@]4(C)[C@]3(C)CC[C@@H]12 [Glycyrrhizic Acid Monoammonium Salt]
- fold induction at 100 µM (TRIM31 mRNA; [5]): 1.72

Molecule: COC(=O)c1cc(OC)c2c(c1-c1c(C(=O)OC)cc(OC)c3c1OCO3)OCO2 [Bifendate, reference compound]
- fold induction at 100 µM (TRIM31 mRNA; [6]): 1.76

Molecule: O[C@H]1CCN2Cc3ccccc3N=C12 [Peganine]
- Qdrug/Qctrl (TRIM31 mRNA expression level, drug group divided by control group) (TRIM31 mRNA; [7]): 1.34 fold

Molecule: Breviscapine
- Qdrug/Qctrl (TRIM31 mRNA expression level, drug group divided by control group) (TRIM31 mRNA; [7]): 3.29 fold

Molecule: C[C@H]1CC[C@@H]2N(C1)C[C@H]1[C@@H]3C[C@H]4[C@@H](C[C@H](O)[C@H]5C[C@@H](O)CC[C@@]54C)[C@@H]3CC[C@@H]1[C@]2(C)O [Peimine]
- Qdrug/Qctrl (TRIM31 mRNA expression level, drug group divided by control group) (TRIM31 mRNA; [7]): 1.31 fold

Molecule: Betacyanin
- Qdrug/Qctrl (TRIM31 mRNA expression level, drug group divided by control group) (TRIM31 mRNA; [7]): 3.14 fold
- Collagen I protein expression level in liver [3]: significantly reduced
- Keap1 protein expression level in liver [3]: significantly reduced
- TGF-β1 protein expression level in liver [3]: significantly reduced
- TRIM31 protein expression in liver [3]: increased
- liver fibrosis and inflammation [3]: effectively alleviated

Molecule: O=c1cc(-c2ccc(O)cc2)oc2cc(O)cc(O)c12 [Apigenin]
- fold induction at 100 µM (TRIM31 mRNA; [6]): 3.21

Molecule: O=C(/C=C/C=C/c1ccc2c(c1)OCO2)N1CCCCC1 [Piperine]
- fold induction at 100 µM (TRIM31 mRNA; [6]): 1.8

Molecule: COc1cc2c(cc1O)CC[n+]1cc3c(OC)c(OC)ccc3cc1-2 [Jateorhizine]
- Qdrug/Qctrl (TRIM31 mRNA expression level, drug group divided by control group) (TRIM31 mRNA; [7]): 1.72 fold

Molecule: C[C@H](CCC(=O)O)[C@H]1CC[C@H]2[C@@H]3[C@@H](O)C[C@@H]4C[C@H](O)CC[C@]4(C)[C@H]3CC[C@]12C [Ursodesoxycholic acid, reference compound]
- fold induction at 100 µM (TRIM31 mRNA; [5]): 2.85

Molecule: O=C1C[C@@H](c2ccc(O)cc2)Oc2cc(O)ccc21 [Liquiritigenin]
- Qdrug/Qctrl (TRIM31 mRNA expression level, drug group divided by control group) (TRIM31 mRNA; [7]): 2.79 fold

Molecule: COc1ccc(-c2cc(=O)c3c(O)cc(O)cc3o2)cc1O [Diosmetin]
- fold induction at 100 µM (TRIM31 mRNA; [5]): 3.41

Molecule: COc1c(O)cc(O)c2c(=O)cc(-c3ccccc3)oc12 [Wogonin]
- fold induction at 100 µM (TRIM31 mRNA; [5]): 3.05

Molecule: O=c1cc(-c2ccc(O)cc2)oc2cc(O)c(O)c(O)c12 [Scutellarein]
- fold induction at 100 µM (TRIM31 mRNA; [6]): 3.2

Molecule: O=c1c(O)c(-c2ccccc2)oc2cc(O)cc(O)c12 [Galangin]
- fold induction at 100 µM (TRIM31 mRNA; [5]): 2.81

Molecule: COc1cc(/C=C/C(=O)CC(=O)/C=C/c2ccc(O)c(OC)c2)ccc1O [Curcumin]
- fold induction at 100 µM (TRIM31 mRNA; [6]): 2.83

Molecule: COc1ccc2cc3[n+](cc2c1OC)CCc1cc2c(cc1-3)OCO2 [Berberine, reference compound]
- fold induction at 100 µM (TRIM31 mRNA; [6]): 1.32

B1: human TRIM31, full-length wild type, Flag-tagged (TRIM31-Flag WT) (protein)
chain: MASGQFVNKLQEEVICPICLDILQKPVTIDCGHNFCLKCITQIGETSCGFFKCPLCKTSVRKNAIRFNSLLRNLVEKIQALQASEVQSKRKEATCPRHQEMFHYFCEDDGKFLCFVCRESKDHKSHNVSLIEEAAQNYQGQIQEQIQVLQQKEKETVQVKAQGVHRVDVFTDQVEHEKQRILTEFELLHQVLEEEKNFLLSRIYWLGHEGTEAGKHYVASTEPQLNDLKKLVDSLKTKQNMPPRQLLEDIKVVLCRSEEFQFLNPTPVPLELEKKLSEAKSRHDSITGSLKKFKDQLQADRKKDENRFFKSMNKNDMKSWGLLQKNNHKMNKTSEPGSSSAGGRTTSGPPNHHSSAPSHSLFRASSAGKVTFPVCLLASYDEISGQGASSQDTKTFDVALSEELHAALSEWLTAIRAWFCEVPSS
- polyubiquitination of Rhbdf2 with single-lysine ubiquitin constructs (K48O, K63O, K33O, K6O, K29O, K27O) [4]: Trim31-mediated increase in polyubiquitination of Rhbdf2 could be greatly observed in the presence of K48-loading vector, but not with other vectors
